# Molecular target: T1, STAT3 (Homo sapiens, UniProt P40763)
# T1 construct: expressed in transfected cells; host or cells: A549
# Test: STAT3 HiBiT degradation assay in transfected A549 cells
# Type: cell-based
# Conditions: 24 h compound incubation, Nano-Glo HiBiT lytic detection, read-out: Cell: STAT3 HiBit A549 degradation 24 h GMean External Abs-DC50
# Description: Compound preparation and Cell seeding: The transfected A549 cells were harvested from dish into cell culture medium and cell numbers counted. Cells were diluted with culture medium to the desired density and 30 μL of cell suspension (about 2000 cells/well) were added into each well of a 384-well cell culture plate as designated and transferred into 37° C. 5% CO2 incubator for 24 h. Compounds were dissolved to 10 mM stock solution and 12 μL of the stock solution was transferred to a 384 LDV-plate. 3 fold, 10-point dilution was performed by transferring 4 μL compound into 8 μL DMSO using a TECAN (EVO200) liquid handler. 30 μL of diluted compound from compound source plate was transferred into the cell plate as designated by using Echo550 and transferred into 37° C. 5% CO2 incubator for 24 h.
# Detection: Plates were removed from incubators and equilibrated at room temperature for 15 minutes. Nano-Glo Hibit Lytic Detection reagent (Promega Cat #N3040) was thawed and equilibrated to room temperature before the experiment. 30 μL of Nano-Glo Hibit Lytic Detection reagent was added into each well to be detected. The plates were held at room temperature for 10 min followed by reading on EnSpire.
# Data analysis: The remaining activity was calculated following the formula: Remaining Activity (%)=100%×(Lumsample−LumNC)/(LumPC−LumNC). Calculate the IC50 by fitting the curve using Xlfit (v5.3.1.3), equation 201: fit=(A+((B−A)/(1+((x/C)^D)))); A: Botton; B: Top; C: IC50; and D: Slope.
# The letter codes for STAT3 DC50 include: A (<0.05 μM), B (0.05-0.2 μM), C (0.2-1.0 μM), and D (>1.0 μM).
# T1 sequence (P40763 whole entry): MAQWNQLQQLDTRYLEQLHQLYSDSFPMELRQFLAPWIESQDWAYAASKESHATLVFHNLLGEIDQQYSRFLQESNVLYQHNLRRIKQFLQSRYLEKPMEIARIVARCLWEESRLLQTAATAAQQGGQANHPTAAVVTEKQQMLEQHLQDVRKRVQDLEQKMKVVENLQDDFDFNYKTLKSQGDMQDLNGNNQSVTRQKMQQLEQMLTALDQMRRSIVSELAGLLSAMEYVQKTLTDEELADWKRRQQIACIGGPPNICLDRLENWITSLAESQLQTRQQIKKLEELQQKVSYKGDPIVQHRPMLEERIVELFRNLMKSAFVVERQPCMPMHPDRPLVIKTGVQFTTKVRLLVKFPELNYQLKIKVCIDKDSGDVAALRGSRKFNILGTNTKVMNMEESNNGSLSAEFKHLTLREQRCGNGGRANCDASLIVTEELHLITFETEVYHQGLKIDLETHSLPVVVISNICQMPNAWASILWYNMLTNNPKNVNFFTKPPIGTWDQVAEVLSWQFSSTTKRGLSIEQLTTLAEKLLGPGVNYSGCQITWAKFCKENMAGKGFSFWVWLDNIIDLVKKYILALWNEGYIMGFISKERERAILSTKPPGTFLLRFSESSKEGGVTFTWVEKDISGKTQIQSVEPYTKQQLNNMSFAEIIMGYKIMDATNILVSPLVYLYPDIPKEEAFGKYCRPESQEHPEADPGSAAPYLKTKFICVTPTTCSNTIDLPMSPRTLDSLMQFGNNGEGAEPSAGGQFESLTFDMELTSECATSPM
row,SMILES,DC50
1,COC(=O)N1CC[C@H]2CC[C@@H](C(=O)N[C@@H](CCC(N)=O)C(=O)N[C@@H](Cc3ccc(F)c(F)c3)C(=O)N3CCC(CCC#Cc4ccc5c(c4)n(C)c(=O)n5C4CCC(=O)NC4=O)CC3)N2C(=O)[C@@H](NC(=O)c2cc3cc(C(F)(F)P(=O)(O)O)ccc3s2)C1 (stereo partly shown) [Compound I-1],< 50 nM
2,"COC(=O)N1CC[C@H]2CC[C@@H](C(=O)N[C@@H](CCC(N)=O)C(=O)N[C@@H](Cc3ccc(F)c(F)c3)C(=O)N3CCC(CCCc4ccc5c(c4)n(C)c(=O)n5C4CCC(=O)NC4=O)CC3)N2C(=O)[C@@H](NC(=O)c2cc3cc(C(F)(F)P(=O)(O)O)ccc3s2)C1 (stereo partly drawn) [Compound I-2, (2-{[(5S,8S,10aR)-8-{[(1S)-3-carbamoyl-1-{[(2S)-3-(3,4-difluorophenyl)-1-(4-{3-[1-(2,6-dioxopiperidin-3-yl)-3-methyl-2-oxo-1,3-benzodiazol-5-yl]propyl}piperidin-1-yl)-1-oxopropan-2-yl]carbamoyl}propyl]carbamoyl}-3-(methoxycarbonyl)-6-oxo-octahydropyrrolo[1,2-a][1,5]diazocin-5-yl]carbamoyl}-1-benzothiophen-5-yl)difluoromethylphosphonic acid]",< 50 nM
3,COC(=O)N1CC[C@H]2CC[C@@H](C(=O)N[C@@H](CCC(N)=O)C(=O)N[C@@H](Cc3ccc(F)c(F)c3)C(=O)N3CCC(CCCc4cccc5c4n(C)c(=O)n5C4CCC(=O)NC4=O)CC3)N2C(=O)[C@@H](NC(=O)c2cc3cc(C(F)(F)P(=O)(O)O)ccc3s2)C1 (stereo partly shown) [Compound I-3],< 50 nM
4,COC(=O)N1CC[C@H]2CC[C@@H](C(=O)N[C@@H](CCC(N)=O)C(=O)N[C@@H](Cc3ccc(F)c(F)c3)C(=O)N3CCC(CCC#Cc4ccc5c(c4)n(C)c(=O)n5C4CCC(=O)NC4=O)CC3)N2C(=O)[C@@H](NC(=O)c2cc3cc(C(=O)P(=O)(O)O)ccc3[nH]2)C1 (stereo partly shown) [Compound I-4],200 to 1000 nM
5,"COC(=O)N1CC[C@H]2CC[C@@H](C(=O)N[C@@H](CCC(N)=O)C(=O)N[C@@H](Cc3ccc(F)c(F)c3)C(=O)N3CCC(CCCc4ccc5c(c4)n(C)c(=O)n5C4CCC(=O)NC4=O)CC3)N2C(=O)[C@@H](NC(=O)c2cc3cc(C(=O)P(=O)(O)O)ccc3[nH]2)C1 (stereo partly drawn) [Compound I-5, 2-[[(5S,8S,10aR)-8-[[(1S)-3-carbamoyl-1-[[(2S)-3-(3,4-difluorophenyl)-1-(4-[3-[1-(2,6-dioxopiperidin-3-yl)-3-methyl-2-oxo-1,3-benzodiazol-5-yl]propyl]piperidin-1-yl)-1-oxopropan-2-yl]carbamoyl]propyl]carbamoyl]-3-(methoxycarbonyl)-6-oxo-octahydropyrrolo[1,2-a][1,5]diazocin-5-yl]carbamoyl]-1H-indole-5-carbonylphosphonic acid]",50 to 200 nM
6,COC(=O)N1CC[C@H]2CC[C@@H](C(=O)N[C@@H](CCC(N)=O)C(=O)N[C@@H](Cc3ccc(F)c(F)c3)C(=O)N3CCC(CCCc4cccc5c4n(C)c(=O)n5C4CCC(=O)NC4=O)CC3)N2C(=O)[C@@H](NC(=O)c2cc3cc(C(=O)P(=O)(O)O)ccc3[nH]2)C1 (stereo partly shown) [Compound I-6],200 to 1000 nM
7,CC(=O)N1CC[C@H]2CC[C@@H](C(=O)N[C@@H](CCC(N)=O)C(=O)N[C@@H](Cc3ccc(F)c(F)c3)C(=O)N3CCC(CCC#Cc4ccc5c(c4)n(C)c(=O)n5C4CCC(=O)NC4=O)CC3)N2C(=O)[C@@H](NC(=O)c2cc3cc(C(=O)P(=O)(O)O)ccc3[nH]2)C1 (stereo partly shown) [Compound I-7],200 to 1000 nM
8,CC(=O)N1CC[C@H]2CC[C@@H](C(=O)N[C@@H](CCC(N)=O)C(=O)N[C@@H](Cc3ccc(F)c(F)c3)C(=O)N3CCC(CCCc4ccc5c(c4)n(C)c(=O)n5C4CCC(=O)NC4=O)CC3)N2C(=O)[C@@H](NC(=O)c2cc3cc(C(=O)P(=O)(O)O)ccc3[nH]2)C1 (stereo partly shown) [Compound I-8],> 1000 nM
9,CC(=O)N1CC[C@H]2CC[C@@H](C(=O)N[C@@H](CCC(N)=O)C(=O)N[C@@H](Cc3ccc(F)c(F)c3)C(=O)N3CCC(CCCc4cccc5c4n(C)c(=O)n5C4CCC(=O)NC4=O)CC3)N2C(=O)[C@@H](NC(=O)c2cc3cc(C(=O)P(=O)(O)O)ccc3[nH]2)C1 (stereo partly shown) [Compound I-9],200 to 1000 nM
10,CC(=O)N1CC[C@H]2CC[C@@H](C(=O)N[C@@H](CCC(N)=O)C(=O)N[C@@H](Cc3ccc(F)c(F)c3)C(=O)N3CCC(CCC#Cc4ccc5c(c4)n(C)c(=O)n5C4CCC(=O)NC4=O)CC3)N2C(=O)[C@@H](NC(=O)c2cc3cc(C(F)(F)P(=O)(O)O)ccc3s2)C1 (stereo partly shown) [Compound I-10],50 to 200 nM
11,Cn1c(=O)n(C2CCC(=O)NC2=O)c2ccc(CCCC3CCN(C(=O)[C@H](Cc4ccc(F)c(F)c4)NC(=O)[C@H](CCC(N)=O)NC(=O)[C@@H]4CC[C@@H]5CCCC[C@H](NC(=O)c6cc7cc(C(F)(F)P(=O)(O)O)ccc7s6)C(=O)N54)CC3)cc21 (stereo partly shown) [Compound I-11],50 to 200 nM
12,Cn1c(=O)n(C2CCC(=O)NC2=O)c2ccc(CCCC3CCN(C(=O)[C@H](Cc4ccc(F)c(F)c4)NC(=O)[C@H](CCC(N)=O)NC(=O)[C@@H]4CC[C@@H]5CCCC[C@H](NC(=O)c6cc7cc(C(=O)P(=O)(O)O)ccc7[nH]6)C(=O)N54)CC3)cc21 (stereo partly shown) [Compound I-12],200 to 1000 nM
13,Cn1c(=O)n(C2CCC(=O)NC2=O)c2cccc(CCCC3CCN(C(=O)[C@H](Cc4ccc(F)c(F)c4)NC(=O)[C@H](CCC(N)=O)NC(=O)N4Cc5cccc6c5C4C(=O)[C@@H](NC(=O)c4cc5cc(C(=O)P(=O)(O)O)ccc5[nH]4)CC6)CC3)c21 (stereo partly shown) [Compound I-13],200 to 1000 nM
14,Cn1c(=O)n(C2CCC(=O)NC2=O)c2cccc(CCCC3CCN(C(=O)[C@H](Cc4ccc(F)c(F)c4)NC(=O)[C@H](CCC(N)=O)NC(=O)N4Cc5cccc6c5C4C(=O)[C@@H](NC(=O)c4cc5cc(C(F)(F)P(=O)(O)O)ccc5s4)CC6)CC3)c21 (stereo partly shown) [Compound I-14],> 1000 nM
15,COC(=O)N1CC[C@H]2CC[C@@H](C(=O)N[C@@H](CCC(N)=O)C(=O)N[C@H](C(=O)N3CCC(CCCc4ccc5c(c4)n(C)c(=O)n5C4CCC(=O)NC4=O)CC3)C3CCCCC3)N2C(=O)[C@@H](NC(=O)c2cc3cc(C(F)(F)P(=O)(O)O)ccc3s2)C1 (stereo partly shown) [Compound I-15],200 to 1000 nM
16,COC(=O)N1CC[C@H]2CC[C@@H](C(=O)N[C@@H](CCC(N)=O)C(=O)N[C@H](C(=O)N3CCC(CCC#Cc4cccc5c4n(C)c(=O)n5C4CCC(=O)NC4=O)CC3)C3CCCCC3)N2C(=O)[C@@H](NC(=O)c2cc3cc(C(F)(F)P(=O)(O)O)ccc3s2)C1 (stereo partly shown) [Compound I-16],200 to 1000 nM
17,COC(=O)N1CC[C@H]2CC[C@@H](C(=O)N[C@@H](CCC(N)=O)C(=O)N[C@H](C(=O)N3CCC(CCCCc4cccc5c4n(C)c(=O)n5C4CCC(=O)NC4=O)CC3)C3CCCCC3)N2C(=O)[C@@H](NC(=O)c2cc3cc(C(F)(F)P(=O)(O)O)ccc3s2)C1 (stereo partly shown) [Compound I-17],200 to 1000 nM
18,COC(=O)N1CC[C@H]2CC[C@@H](C(=O)N[C@@H](CCC(N)=O)C(=O)N[C@H](C(=O)N3CCC(CCCc4ccc5c(c4)n(C)c(=O)n5C4CCC(=O)NC4=O)CC3)C3CCCCC3)N2C(=O)[C@@H](NC(=O)c2cc3cc(C(=O)P(=O)(O)O)ccc3[nH]2)C1 (stereo partly shown) [Compound I-18],200 to 1000 nM
19,COC(=O)N1CC[C@H]2CC[C@@H](C(=O)N[C@@H](CCC(N)=O)C(=O)N[C@H](C(=O)N3CCC(CCC#Cc4cccc5c4n(C)c(=O)n5C4CCC(=O)NC4=O)CC3)C3CCCCC3)N2C(=O)[C@@H](NC(=O)c2cc3cc(C(=O)P(=O)(O)O)ccc3[nH]2)C1 (stereo partly shown) [Compound I-19],200 to 1000 nM
20,COC(=O)N1CC[C@H]2CC[C@@H](C(=O)N[C@@H](CCC(N)=O)C(=O)N[C@H](C(=O)N3CCC(CCCCc4cccc5c4n(C)c(=O)n5C4CCC(=O)NC4=O)CC3)C3CCCCC3)N2C(=O)[C@@H](NC(=O)c2cc3cc(C(=O)P(=O)(O)O)ccc3[nH]2)C1 (stereo partly shown) [Compound I-20],200 to 1000 nM
21,CC(=O)N1CC[C@H]2CC[C@@H](C(=O)N[C@@H](CCC(N)=O)C(=O)N[C@H](C(=O)N3CCC(CCCCc4cccc5c4n(C)c(=O)n5C4CCC(=O)NC4=O)CC3)C3CCCCC3)N2C(=O)[C@@H](NC(=O)c2cc3cc(C(=O)P(=O)(O)O)ccc3[nH]2)C1 (stereo partly shown) [Compound I-27],> 1000 nM
22,CC(=O)N1CC[C@H]2CC[C@@H](C(=O)N[C@@H](CCC(N)=O)C(=O)N[C@H](C(=O)N3CCC(CCC#Cc4cccc5c4n(C)c(=O)n5C4CCC(=O)NC4=O)CC3)C3CCCCC3)N2C(=O)[C@@H](NC(=O)c2cc3cc(C(=O)P(=O)(O)O)ccc3[nH]2)C1 (stereo partly shown) [Compound I-29],> 1000 nM
23,CC(=O)N1CC[C@H]2CC[C@@H](C(=O)N[C@@H](CCC(N)=O)C(=O)N[C@H](C(=O)N3CCC(CCCc4ccc5c(c4)n(C)c(=O)n5C4CCC(=O)NC4=O)CC3)C3CCCCC3)N2C(=O)[C@@H](NC(=O)c2cc3cc(C(=O)P(=O)(O)O)ccc3s2)C1 (stereo partly shown) [Compound I-30],> 1000 nM
24,CC(=O)N1CC[C@H]2CC[C@@H](C(=O)N[C@@H](CCC(N)=O)C(=O)N[C@H](C(=O)N3CCC(CCC#Cc4cccc5c4n(C)c(=O)n5C4CCC(=O)NC4=O)CC3)C3CCCCC3)N2C(=O)[C@@H](NC(=O)c2cc3cc(C(=O)P(=O)(O)O)ccc3s2)C1 (stereo partly shown) [Compound I-31],50 to 200 nM
25,CC(=O)N1CC[C@H]2CC[C@@H](C(=O)N[C@@H](CCC(N)=O)C(=O)N[C@H](C(=O)N3CCC(CCCCc4cccc5c4n(C)c(=O)n5C4CCC(=O)NC4=O)CC3)C3CCCCC3)N2C(=O)[C@@H](NC(=O)c2cc3cc(C(=O)P(=O)(O)O)ccc3s2)C1 (stereo partly shown) [Compound I-32],200 to 1000 nM

# — patent publication US20240293423A1, “STAT DEGRADERS AND USES THEREOF” (Kymera Therapeutics, Inc., priority 2020, published 2024)
